Laboratory results from BindingDB's records for doi:10.1046/j.1471-4159.1996.67010145.x (Mcgill University, 1996).
“And” between values parts separate entries of the source, which are not always exact repeats. Identical values can stand only once.

These molecules were tested against T1, Alpha-bungarotoxin (Bungarus multicinctus, UniProt P60615).
T1 sequence (P60615 whole entry): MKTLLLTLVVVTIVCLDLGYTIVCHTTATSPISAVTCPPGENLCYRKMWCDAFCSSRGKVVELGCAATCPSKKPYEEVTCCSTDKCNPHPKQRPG

Compound	Ki
CC[N+](CC)(CC)CC	> 10000 nM
CCN1C[C@]2(COC(=O)c3ccccc3-n3c(O)cc(C)c3O)CC[C@H](OC)[C@]34C5C[C@@H]6[C@@H](OC)C[C@@](O)(C5[C@H]6OC)[C@@](O)(C13)[C@@H](OC)C24 (stereo partly drawn) [[(1S,4S,5R,6S,8R,9R,13S,16S,18S)-11-ethyl-8,9-dihydroxy-4,6,16,18-tetramethoxy-11-azahexacyclo[7.7.2.1^{2,5}.0^{1,10}.0^{3,8}.0^{13,17}]nonadecan-13-yl]methyl 2-[(3S)-3-methyl-2,5-dioxopyrrolidin-1-yl]benzoate]	7.9 nM and 3.1 nM
C[N+](C)(C)C	2400 nM
CN1CCC[C@H]1c1cccnc1 [(R,S)-nicotine]	1700 nM and 900 nM
C[N+](C)(C)CCOC(N)=O [(2-Hydroxyethyl)trimethyl ammonium chloride carbamate]	9300 nM
C[N+]1(C)CCN(c2ccccc2)CC1 [DMPP]	670 nM
COc1cc2c3cc1Oc1cc(ccc1O)C[C@H]1c4c(cc(OC)c(O)c4Oc4ccc(cc4)C[C@@H]3N(C)CC2)CC[N+]1(C)C [CAS_57-94-3]	5600 nM
O=c1cccc2n1C[C@H]1CNC[C@H]2C1 [(1S,9R)-7,11-diazatricyclo[7.3.1.0~2,7~]trideca-2,4-dien-6-one]	1800 nM
C=C(C=O)C[C@H]1C[C@H](O)[C@]2(C)O[C@@H]3C[C@@H]4O[C@@H]5C[C@]6(C)O[C@]7(C)CC[C@@H]8O[C@@H]9C[C@]%10(C)O[C@@H]%11C(C)=CC(=O)O[C@H]%11C[C@H]%10O[C@H]9C[C@@H](C)[C@H]8O[C@H]7C[C@H]6O[C@@]5(C)C/C=C\[C@H]4O[C@H]3C[C@H]2O1	0.35 nM and 0.23 nM
